From patent US9669104B2, “Nanocomplex containing amphipathic peptide useful for efficient transfection of biomolecules” (Council of Scientific and Industrial Research, priority 2012, dated 2017)
Entries after “also recorded” stand apart in the source; their conditions may differ.

How the values were obtained:
CHO-K1 cells [1] = assay: Cellular uptake of small RNA (Siglo) by flow cytometry; type: cell-based, Chinese hamster; settings: Siglo non-covalently complexed; for small RNA delivery: charge ratio 5; for uptake of the small RNA (fluorescence positive cells): charge ratio 5, CHO-K1, 4 h
Description: (§1) The uptake of the small RNA, which is noncovalently complexed with the peptides, was almost 100% in CHO-K1 cells at charge ratio 5 for Mgpe-9 and Mgpe-10. Siglo was used as a model small RNA. This RNA was used to prepare the nanocomplexes with the peptide at charge ratio 5.0. Chinese hamster ovary cells (CHO-K1) were maintained in Ham's F-12K media supplemented with 10% (v/v) Fetal bovine serum (Life Technologies, USA); at 37° C. and 5% CO2 in humidified incubator. Cells were grown in 24 well plate which was seeded 24 h before use. At a confluency of 70-80% the cells were treated with labelled nanocomplexes for 4 h at 37° C. After incubation, the media was removed and cells were washed twice with PBS supplemented with heparin (1 mg/ml). The cells were then treated with trypsin (0.25%) for 5-10 min and harvested in complete media, pelleted down, washed with PBS, resuspended in PBS having 1% BSA and then analyzed on FACS-Calibur™ (Becton Dickinson, USA) using CellQuest. Pro software. The labelled nanocomplexes were excited using 488 nm laser and detected with 530/30 nm (FL1) band pass filter. In each case total 10,000 events were acquired. Percentage of fluorescence positive cells was plotted as bars and their mean intensity was plotted as a line.
as §1, with “Siglo” for “The uptake of the small RNA, which is noncovalently complexed with the peptides, was almost 100% in CHO-K1 cells at charge ratio 5 for Mgpe-9 and Mgpe-10. Siglo”, “RNA” for “RNA.”, “plates” for “plate”, “CellQuest” for “CellQuest.”, “line. The uptake of the small RNA, which is noncovalently complexed with the peptides, was almost 100% in CHO-K1 cells at charge ratio 5 for Mgpe-9 and Mgpe-10. […] Nanocomplex containing invented peptide can carry biomolecules in the range of 20 bp to 7 kbp size.” for “line.”

[2] = Size and zeta potential of nanocomplexes by DLS; type: physicochemical; settings: nanocomplexes with DNA at charge ratio 10, DNA 25 ng/μl; for Size (nm): deionized water, 25° C.
Description: The mean hydrodynamic diameter and zeta potential of nanocomplexes prepared at charge 10.0 at 25 ng/μl of DNA concentration in deionized water were measured by Zeta sizer Nano ZS (Malvern Instruments, UK) at a fixed angle of 173° at 25° C. Minimum of 3 readings were recorded for each sample with replicates. As presented in Table-2 all the peptides were able to make nanocomplexes with DNA. The size of nanocomplexes was ranging from 50 to 110 nm and Zeta potential was ranging from 30 to 60 mV.
The mean hydrodynamic diameter and zeta potential of nanocomplex (Table 2) prepared at charge 10 at 25 ng/μl of DNA concentration in deionized water were measured by Zeta sizer Nano ZS (Malvern Instruments, UK) at a fixed angle of 173° at 25° C. Minimum of 3 readings were recorded for each sample with replicates. All five invented peptides were able to Make monodisperse nanocomplex with sizes ranging from 50 nm to 110 nm with DNA.

CHO-K1 cells [3] = assay: Luciferase transfection efficiency in CHO-K1 cells; type: cell-based, Chinese hamster
Description: The transfection efficiency in terms of reporter gene expression has been checked using luciferase reporter assay. A plasmid (pMIR-Report™ Luciferase) containing luciferase gene was complexed with the peptide and transfected to the cell. The nanocomplexes were made at different charge ratios and transfected in a wide range of cell lines. CHO-K1 cells were maintained in Ham's F-12K media and MCF-7 and A549 cells in low glucose DMEM supplemented with 10% (v/v) Fetal bovine serum (Life Technologies, USA); at 37° C. and 5% CO2 in humidified incubator. Cells were seeded 24 h before transfection in 24-well plates. Nanocomplexes were prepared with final DNA concentration of 20 ng/μl and incubated for 1 h at room temperature. 100 μl of nanocomplex was added to cells at ˜70% confluency in serum-free media (OptiMEM, Invitrogen). After 5 h of incubation at 37° C. and 5% CO2 in humidified incubator, the media was aspirated; cells were washed with phosphate buffered saline (PBS, pH 7.4) and supplemented with 500 μl of complete growth medium. After 24 h, cells were washed with PBS and lysed with 100 μl of cell culture lysis buffer (1×CCLR, Promega). Luciferase expression was measured in 50 μl of cell lysate supernatant using the luciferase assay substrate (Promega). Light emission was measured by integration over 1 Os in Orion microplate luminometer (Berthold Detection System, Germany). Luciferase activity was normalized with total protein content of the cells estimated using BCA protein assay (Pierce).
CHO-K1 cells were maintained in Ham's F-12K media and MCF-7 and A549 cells in low glucose DMEM supplemented with 10% (v/v) Fetal bovine serum (Life Technologies, USA); at 37° C. and 5% CO2 in humidified incubator. Cells were seeded 24 h before transfection in 24-well plates. A plasmid (pMIR-Report™ Luciferase) containing luciferase gene was complexed with the peptide and transfected to the cell. The nanocomplexes were made at different charge ratios and transfected in a wide range of cell lines. Nanocomplexes were prepared with final DNA concentration of 20 ng/μl and incubated for 1 h at room temperature. 100 μl of nanocomplex was added to cells at 70% confluency in serum-free media (OptiMEM, Invitrogen). Cellfectin, Superfect and Lipofectamine2000 used as manufacturer protocol. In case of transfection in presence of serum, nanocomplexes were added in complete media. […] Luciferase expression was measured in 50 μl of cell lysate supernatant using the luciferase assay substrate (Promega). Light emission was measured by integration over 10 s in Orion micro plate luminometer (Berthold Detection System, Germany). […]

MCF-7 = assay: Luciferase transfection efficiency in MCF-7 cells; type: cell-based; settings: MCF-7, charge ratio 5
Description: (§2) The transfection efficiency in terms of reporter gene expression has been checked using luciferase reporter assay. A plasmid (pMIR-Report™ Luciferase) containing luciferase gene was complexed with the peptide and transfected to the cell. The nanocomplexes were made at different charge ratios and transfected in a wide range of cell lines. CHO-K1 cells were maintained in Ham's F-12K media and MCF-7 and A549 cells in low glucose DMEM supplemented with 10% (v/v) Fetal bovine serum (Life Technologies, USA); at 37° C. and 5% CO2 in humidified incubator. Cells were seeded 24 h before transfection in 24-well plates. […] Luciferase expression was measured in 50 μl of cell lysate supernatant using the luciferase assay substrate (Promega). Light emission was measured by integration over 1 Os in Orion microplate luminometer (Berthold Detection System, Germany). […]
(§3) CHO-K1 cells were maintained in Ham's F-12K media and MCF-7 and A549 cells in low glucose DMEM supplemented with 10% (v/v) Fetal bovine serum (Life Technologies, USA); at 37° C. and 5% CO2 in humidified incubator. […] Luciferase expression was measured in 50 μl of cell lysate supernatant using the luciferase assay substrate (Promega). Light emission was measured by integration over 10 s in Orion micro plate luminometer (Berthold Detection System, Germany). […]

A549 = assay: Luciferase transfection efficiency in A549 cells; type: cell-based; settings: A549, charge ratio 5
Description: as §2, §3

CHO-K1 cells [4] = assay: Transfection in presence of 10% serum; type: cell-based, Chinese hamster; settings: CHO-K1, charge ratio 20

Sequence: CLLYWFRRRHRHHRRRHRRC [Mgpe-10, Mgpe-4 with a cysteine residue at each end]
- small RNA delivery (CHO-K1 cells [1]): found to show small RNA delivery
- uptake of the small RNA (fluorescence positive cells) (CHO-K1 cells [1]): ~100%
- PDI [2]: 0.206 ± 0.004
- Zeta potential(mV) [2]: 57.6 ± 3.2 mV
- Size (nm) [2]: 66.2 ± 0.7 nm

Sequence: CRRLRHLRHHYRRRWHRFRC [Mgpe-9, Mgpe-3 with a cysteine residue at each end]
- transfection efficiency compared with Cellfectin, Superfect and Lipofectamine 2000 (CHO-K1 cells [3]; CHO-K1, charge ratio 5): higher or equal transfection efficiency; also recorded: highest transfection efficiency
- transfection efficiency (luciferase) (CHO-K1 cells [3]; CHO-K1, charge ratio 5, plasmid DNA non-covalently complexed): more than 10^8 RLU/mg protein
- small RNA delivery (CHO-K1 cells [1]): found to show small RNA delivery
- uptake of the small RNA (fluorescence positive cells) (CHO-K1 cells [1]): ~100%
- transfection efficiency (luciferase) (MCF-7): more than 10^8 RLU/mg protein
- transfection efficiency (luciferase) (A549): more than 10^6 RLU/mg protein
- PDI [2]: 0.169 ± 0.002
- Zeta potential(mV) [2]: 43.4 ± 0.1 mV
- Size (nm) [2]: 75.8 ± 3.8 nm
- transfection efficiency in presence of serum (CHO-K1 cells [4]): up to 10^7 RLU/mg protein

Sequence: LLYWFRRRHRHHRRRHRR [Mgpe-4, primary amphipathic peptide by rearrangement of the amino acids of Mgpe-3]
- transfection efficiency compared with Cellfectin and Superfect (CHO-K1 cells [3]; CHO-K1, charge ratio 5): higher or equal transfection efficiency
- PDI [2]: 0.155 ± 0.010
- Zeta potential(mV) [2]: 25.4 ± 0.2 mV
- Size (nm) [2]: 62.8 ± 7.0 nm

Sequence: RRLRHLRHHYRRRWHRFR [Mgpe-3]
- transfection efficiency compared with Cellfectin and Superfect (CHO-K1 cells [3]; CHO-K1, charge ratio 10): higher or equal transfection efficiency
- PDI [2]: 0.152 ± 0.014
- Zeta potential(mV) [2]: 33.5 ± 5.9 mV
- Size (nm) [2]: 63.2 ± 4.5 nm

Sequence: SRLSHLRHHYSKKWHRFR (listed as Homo sapiens) [Mgpe-1, 18 mer amphipathic peptide derived from Human Protein phosphatase 1E; tested as nanocomplex with plasmid DNA]
- PDI [2]: 0.151 ± 0.031
- Zeta potential(mV) [2]: 36.5 ± 0.8 mV
- Size (nm) [2]: 80.1 ± 7.3 nm
